Reference: PubChem BioAssay AID2060620 (Molecular Pharmacology Branch, DTP, NCI, 2025)

Tested on: 328373-195-R-J1-PDC complex spheroids, viability % test/control
Assay: Anticancer human tumor 328373-195-R-J1-PDC patient-derived head and neck squamous carcinoma cell line growth inhibition [CLK]
Details: for IC50: curve of first compound; for viability, T/C: stronger effect = lower value
Procedure, shortened: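 Patient-derived tumor cells grown as complex spheroids with HUVEC endothelial cells and mesenchymal stem cells, treated with drug combinations. Concentrations descend in half-log steps from near clinical Cmax, or from 10 microM if Cmax unknown.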
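Note: spheroids exposed to the agents for 7 days.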

NC(=O)C(=Cn1cnc(-c2cc(C(F)(F)F)cc(C(F)(F)F)c2)n1)c1cncnc1 + CN1CCN(c2cc(C(=O)Nc3cc4cc(-c5cnn(C)c5)ccc4cn3)ccn2)CC1
IC50 (second compound 0.0316 µM): 21.5 nM
IC50 (second compound 0.1 µM): 12.8 nM
IC50 (second compound 0.316 µM): < 9.49 nM
IC50 (second compound 1 µM): < 9.49 nM
IC50 (second compound 3.16 µM): < 9.49 nM
IC50 (second compound 10 µM): < 9.49 nM
viability, T/C (second compound 0.0316 µM, first compound 0.00949 µM): 78.8%
viability, T/C (second compound 0.0316 µM, first compound 0.03 µM): 38.3%
viability, T/C (second compound 0.0316 µM, first compound 0.0949 µM): 1.11%
viability, T/C (second compound 0.0316 µM, first compound 0.3 µM): 0.32%
viability, T/C (second compound 0.0316 µM, first compound 0.949 µM): 0.14%
viability, T/C (second compound 0.0316 µM, first compound 3 µM): 1.38%
viability, T/C (second compound 0.1 µM, first compound 0.00949 µM): 56.7%
viability, T/C (second compound 0.1 µM, first compound 0.03 µM): 31.2%
viability, T/C (second compound 0.1 µM, first compound 0.0949 µM): 0.33%
viability, T/C (second compound 0.1 µM, first compound 0.3 µM): 0.56%
viability, T/C (second compound 0.1 µM, first compound 0.949 µM): 0.08%
viability, T/C (second compound 0.1 µM, first compound 3 µM): 3.54%
viability, T/C (second compound 0.316 µM, first compound 0.00949 µM): 13.3%
viability, T/C (second compound 0.316 µM, first compound 0.03 µM): 1.99%
viability, T/C (second compound 0.316 µM, first compound 0.0949 µM): 1.27%
viability, T/C (second compound 0.316 µM, first compound 0.3 µM): 0.99%
viability, T/C (second compound 0.316 µM, first compound 0.949 µM): 0.07%
viability, T/C (second compound 0.316 µM, first compound 3 µM): 1.88%
viability, T/C (second compound 1 µM, first compound 0.00949 µM): 0.09%
viability, T/C (second compound 1 µM, first compound 0.03 µM): 0.12%
viability, T/C (second compound 1 µM, first compound 0.0949 µM): 2.09%
viability, T/C (second compound 1 µM, first compound 0.3 µM): 1.38%
viability, T/C (second compound 1 µM, first compound 0.949 µM): 2.09%
viability, T/C (second compound 1 µM, first compound 3 µM): 0.22%
viability, T/C (second compound 3.16 µM, first compound 0.00949 µM): 0.24%
viability, T/C (second compound 3.16 µM, first compound 0.03 µM): 1.6%
viability, T/C (second compound 3.16 µM, first compound 0.0949 µM): 0.1%
viability, T/C (second compound 3.16 µM, first compound 0.3 µM): 1.06%
viability, T/C (second compound 3.16 µM, first compound 0.949 µM): 0.12%
viability, T/C (second compound 3.16 µM, first compound 3 µM): 1.99%
viability, T/C (second compound 10 µM, first compound 0.00949 µM): 1.81%
viability, T/C (second compound 10 µM, first compound 0.03 µM): 0.08%
viability, T/C (second compound 10 µM, first compound 0.0949 µM): 0.93%
viability, T/C (second compound 10 µM, first compound 0.3 µM): 0.14%
viability, T/C (second compound 10 µM, first compound 0.949 µM): 1.29%
viability, T/C (second compound 10 µM, first compound 3 µM): 0.16%

Nc1ccccc1NC(=O)c1ccc(CNC(=O)OCc2cccnc2)cc1 + CN1CCN(c2cc(C(=O)Nc3cc4cc(-c5cnn(C)c5)ccc4cn3)ccn2)CC1
IC50 (second compound 0.0316 µM): 706 nM
IC50 (second compound 0.1 µM): 641 nM
IC50 (second compound 0.316 µM): < 31.6 nM
IC50 (second compound 1 µM): < 31.6 nM
IC50 (second compound 3.16 µM): < 31.6 nM
IC50 (second compound 10 µM): < 31.6 nM
viability, T/C (second compound 0.0316 µM, first compound 0.0316 µM): 90.1%
viability, T/C (second compound 0.0316 µM, first compound 0.1 µM): 79.9%
viability, T/C (second compound 0.0316 µM, first compound 0.316 µM): 63.5%
viability, T/C (second compound 0.0316 µM, first compound 1 µM): 38.3%
viability, T/C (second compound 0.0316 µM, first compound 3.16 µM): 34.1%
viability, T/C (second compound 0.0316 µM, first compound 10 µM): 11.1%
viability, T/C (second compound 0.1 µM, first compound 0.0316 µM): 74.5%
viability, T/C (second compound 0.1 µM, first compound 0.1 µM): 80%
viability, T/C (second compound 0.1 µM, first compound 0.316 µM): 55.4%
viability, T/C (second compound 0.1 µM, first compound 1 µM): 40.8%
viability, T/C (second compound 0.1 µM, first compound 3.16 µM): 30%
viability, T/C (second compound 0.1 µM, first compound 10 µM): 7.09%
viability, T/C (second compound 0.316 µM, first compound 0.0316 µM): 26.5%
viability, T/C (second compound 0.316 µM, first compound 0.1 µM): 32.9%
viability, T/C (second compound 0.316 µM, first compound 0.316 µM): 22.5%
viability, T/C (second compound 0.316 µM, first compound 1 µM): 16.6%
viability, T/C (second compound 0.316 µM, first compound 3.16 µM): 8.58%
viability, T/C (second compound 0.316 µM, first compound 10 µM): 1.38%
viability, T/C (second compound 1 µM, first compound 0.0316 µM): 0.23%
viability, T/C (second compound 1 µM, first compound 0.1 µM): 1.09%
viability, T/C (second compound 1 µM, first compound 0.316 µM): 0.16%
viability, T/C (second compound 1 µM, first compound 1 µM): 0.08%
viability, T/C (second compound 1 µM, first compound 3.16 µM): 1.1%
viability, T/C (second compound 1 µM, first compound 10 µM): 2.52%
viability, T/C (second compound 3.16 µM, first compound 0.0316 µM): 0.07%
viability, T/C (second compound 3.16 µM, first compound 0.1 µM): 0.75%
viability, T/C (second compound 3.16 µM, first compound 0.316 µM): 1.64%
viability, T/C (second compound 3.16 µM, first compound 1 µM): 0.06%
viability, T/C (second compound 3.16 µM, first compound 3.16 µM): 0.07%
viability, T/C (second compound 3.16 µM, first compound 10 µM): 0.09%
viability, T/C (second compound 10 µM, first compound 0.0316 µM): 0.04%
viability, T/C (second compound 10 µM, first compound 0.1 µM): 1.05%
viability, T/C (second compound 10 µM, first compound 0.316 µM): 0.15%
viability, T/C (second compound 10 µM, first compound 1 µM): 0.1%
viability, T/C (second compound 10 µM, first compound 3.16 µM): 2.24%
viability, T/C (second compound 10 µM, first compound 10 µM): 0.16%
